# Reference: patent US20030158254A1, “Engineering absorption of therapeutic compounds via colonic transporters” (XenoPort, Inc., priority 2002, published 2003)
# Columns and labels:
# [1] = tested on: Caco-2 cells; test: Caco-2 transport with and without PEPT1/PEPT2 inhibitor Lys(ε-Dansyl)-Leu; format: cell-based, human; conditions: apical to basolateral, 600 μM Lys(ε-Dansyl)-Leu, FIG. 2
# Source text: Caco-2 cells are derived from the human colon and naturally express a number of colon-expressed transporters. The cells can be used to screen agents or conjugates for capacity to be transported by a colon expressed transporter. By screening agents or conjugates in the presence and absence of the specific PEPT1 and PEPT2 inhibitor Lys(ε-Dansyl)-Leu, one can determine whether PEPT1 and/or PEPT2 is a transporter mediating transport of the agent or conjugate. The role of PEPT1 and/or PEPT2 is shown by a decrease in transport in the presence of Lys(ε-Dansyl)-Leu.
# 1. Caco-2 cells are plated in either a 12 or 24 well Transwell plate and allowed to differentiate for 19-30 days prior to screening. Day 21 cells are optimal.
# 2. Dilutions of test compounds with or without Lys(ε-Dansyl)-Leu are prepared in assay buffer. pH 6.0
# a. Concentrations of compounds are generally 1 mM with or without 600 μM Lys(Dansyl)-leucine.
# b. 20 μM Propidium Iodide added as marker.
# 3. Spent media is aspirated from apical and basolateral chambers. To the apical chambers, 500 μL of test compound with or without Lys(ε-Dansyl)-Leu is added (125 μL for 24 well Transwell plates).
# 4. In the basolateral chambers, HBSS buffer pH 7.4 is added (1.5 mL for 12 well format, 875 μL for 24 well format).
# 5. At each timepoint, 50 μL is sampled from basolateral chambers and transferred to a LC/MS plate (Nunc, PP round bottom).
# 6. […]
# [2] = molecular target: T1, hSMVT (Homo sapiens, UniProt Q9Y289); test: Transport currents in SMVT-expressing Xenopus oocytes, normalized to biotin; format: cell-based; conditions: response relative to biotin, transporter-expressing oocytes, test compound 0.5 mM
# T1 sequence (Q9Y289 1-635): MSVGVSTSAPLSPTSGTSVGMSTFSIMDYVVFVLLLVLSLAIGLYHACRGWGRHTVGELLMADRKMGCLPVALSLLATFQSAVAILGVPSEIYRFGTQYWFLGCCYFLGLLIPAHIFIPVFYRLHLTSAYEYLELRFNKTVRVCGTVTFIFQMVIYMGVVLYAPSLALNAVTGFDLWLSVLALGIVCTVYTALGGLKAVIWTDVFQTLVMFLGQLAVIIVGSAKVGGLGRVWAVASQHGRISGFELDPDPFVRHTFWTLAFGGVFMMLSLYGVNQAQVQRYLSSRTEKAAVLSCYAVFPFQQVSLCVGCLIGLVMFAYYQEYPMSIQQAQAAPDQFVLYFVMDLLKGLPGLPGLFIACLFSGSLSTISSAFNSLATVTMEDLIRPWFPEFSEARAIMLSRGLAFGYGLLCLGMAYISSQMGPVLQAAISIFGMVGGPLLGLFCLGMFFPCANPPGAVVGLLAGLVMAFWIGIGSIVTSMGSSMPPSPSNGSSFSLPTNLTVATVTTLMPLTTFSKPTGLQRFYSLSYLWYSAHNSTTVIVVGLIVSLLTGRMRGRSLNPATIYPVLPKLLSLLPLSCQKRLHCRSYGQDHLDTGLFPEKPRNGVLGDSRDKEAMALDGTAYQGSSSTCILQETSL
# Source text: The complete open reading frame of human ATBO+(SLC6A14) and SMVT (SLC5A6) were amplified from human cDNA prepared from liver or intestine mRNA. Gene-specific oligonucleotide primers were designed against Genbank sequences (AF151978 and NM-021095). Amplified PCR products were cloned into a modified version of the mammalian expression vector pcDNA3 (termed pMO) that was engineered to contain the 5′ and 3′ untranslated regions from the Xenopus beta-globin gene. All clones were completely sequenced and tested for function by transient transfection in HEK293 cells.
# cRNA for oocyte expression was prepared by linearization of plasmid cDNA and in vitro transcription using T7 polymerase (Epicentre Ampliscribe kit). Xenopus oocytes were prepared and maintained as previously described (Collins et al., PNAS […]:5456-5460 (1997)) and injected with 10-30 ng RNA. Transport currents were measured 2-6 days later using two-electrode voltage-clamp (Axon Instruments). All experiments were performed using a modified oocyte Ringers solution (90 mM NaCl, 2 mM KCl, 1.8 mM CaCl2, 1 mM MgCl2, and 10 mM Na HEPES, pH 7.4; in Na^+-free solutions 90 mM choline chloride was substituted for NaCl). The membrane potential of oocytes was held at −60 mV and current traces acquired using PowerLab software (AD Instruments). Full 7-concentration dose-responses were performed for each compound. […] Half-maximal concentrations were calculated using non-linear regression curve fitting software (Prism) with the Hill co-efficient fixed to 1. To ensure that currents were specific for the over-expressed transporter, all compounds were tested against uninjected oocytes. Since both ATBO+ and SMVT require Na^+ for transport, we confirmed transport specificity by application of the compounds in a Na^+-free solution.
# In vitro transport data for selected compounds on hSMVT-expressing cells
# [3] = Uptake into plasma of Compound V following oral and intracolonic administration; format: in vivo, rat; conditions: FIG. 4
# Description: Rats were obtained commercially and were pre-cannulated in the both the ascending colon and the jugular vein. Animals were conscious at the time of the experiment. All animals were fasted overnight and until 4 hours post-dosing. Prodrugs were administered as a solution (in water or polyethylene glycol 400) directly into the colon via the cannula at a dose equivalent to 25 mg of gabapentin per kg. Blood samples (0.5 mL) were obtained from the jugular cannula at intervals over 8 hours and were quenched immediately by addition of acetonitrile/methanol to prevent further conversion of the prodrug. Blood samples were analyzed as described in the attached sample analysis summary.
# FIG. 4 compares uptake into the plasma of Compound V following oral and intracolonic administration. […] The levels from oral and colonic administration cross at about 7 hr.
structure (smiles),measurement,setting,value
"CC(C)(N)C(=O)NCC1(CC(=O)O)CCCCC1 [Compound V, a-aminoisobutyryl gabapentin]",Transport across Caco-2 cells in presence and absence of Lys(ε-Dansyl)-Leu,[1],inhibited by Lys(ε-Dansyl)-Leu
same,% Max. (Biotin),[2],36%
same,Plasma peak after colonic dosing compared with oral,[3]; intracolonic versus oral,lower peak at a later time
same,Time at which plasma levels from oral and colonic administration cross,[3]; oral versus intracolonic,about 7 hr
